Read-outs that look alike come from different tables or passages of the source.
Legend:
Test in all cases: microbe, parasite or virus in culture
[1] = tested on: ABC clinical isolates with SUL-DUR MIC > 4 µg/mL; format: cell-based, Acinetobacter baumannii-calcoaceticus complex; conditions: Acinetobacter
Procedure: (§1) The following report describes the genomic analysis of these isolates for likely resistance mechanisms. Biochemical analysis of purified PBP3 and phenotypic analyses of both clinical and isogenic strains were also conducted to determine the relative impact of key resistance determinants to SUL-DUR antibacterial activity.
(§2) Antimicrobial susceptibility testing was performed using broth microdilution following standardized methods established by the Clinical Laboratory Standards Institute (CLSI) ([35], [36]). […] MIC values were interpreted using CLSI breakpoints for all antimicrobial agents except those for which CLSI breakpoints are not available ([35]). SUL-DUR was tested as twofold dilutions of sulbactam in combination with a fixed concentration of 4 µg/mL durlobactam ([35]).

[2] = tested on: A. baumannii clinical isolates; format: cell-based; conditions: Acinetobacter baumannii
Procedure: as §1, §2

[3] = tested on: A. pittii clinical isolates; format: cell-based; conditions: Acinetobacter pittii
Procedure: as §1, §2

[4] = tested on: A. nosocomialis clinical isolate; format: cell-based; conditions: Acinetobacter nosocomialis, isolate ARC7023 (IHMA 2118812), France, BSI, 2019, read-out: MIC
Procedure: as §1, §2

CN(C)c1cc(NC(=O)CNC(C)(C)C)c(O)c2c1C[C@H]1C[C@H]3[C@H](N(C)C)C(O)=C(C(N)=O)C(=O)[C@@]3(O)C(O)=C1C2=O [TIG, tigecycline]
2 µg/mL: MIC90 [1] | MIC ([2]; isolate ARC6816 (IHMA 1699521), Guatemala, RTI, 2017, read-out: MIC) | MIC ([2]; isolate ARC6819 (IHMA 1683267), Thailand, RTI, 2017, read-out: MIC) | MIC ([2]; isolate ARC7011 (IHMA 2104553), Germany, RTI, 2019, read-out: MIC) | MIC ([2]; isolate ARC7022 (IHMA 2045319), Guatemala, IAI, 2019, read-out: MIC) | MIC ([2]; isolate ARC7024 (IHMA 2059448), Turkey, RTI, 2019, read-out: MIC) | MIC ([2]; isolate ARC7083 (IHMA 2163687), United States, RTI, 2020, read-out: MIC) | MIC ([2]; isolate ARC7084 (IHMA 2189596), Germany, RTI, 2020, read-out: MIC) | MIC ([2]; isolate ARC7086 (IHMA 2207563), Israel, RTI, 2020, read-out: MIC) | MIC ([2]; isolate ARC7088 (IHMA 2215554), Turkey, BSI, 2020, read-out: MIC) | MIC ([2]; isolate ARC7090 (IHMA 2244410), Poland, RTI, 2020, read-out: MIC) | MIC ([2]; isolate ARC7093 (IHMA 2258783), United States, RTI, 2020, read-out: MIC) | MIC ([2]; isolate ARC7156 (IHMA 2455450), Greece, RTI, 2021, read-out: MIC) | MIC ([2]; isolate ARC7160 (IHMA 2458626), Thailand, RTI, 2021, read-out: MIC) | MIC ([2]; isolate ARC7161 (IHMA 2429252), Ukraine, RTI, 2021, read-out: MIC)
0.12 µg/mL: MIC ([2]; isolate ARC6647 (IHMA 1386786), Argentina, RTI, 2016, read-out: MIC) | MIC ([2]; isolate ARC7013 (IHMA 1962831), Argentina, RTI, 2019, read-out: MIC)
0.5 µg/mL: MIC ([2]; isolate ARC6809 (IHMA 1699528), Guatemala, RTI, 2017, read-out: MIC) | MIC ([2]; isolate ARC6812 (IHMA 1699530), Guatemala, RTI, 2017, read-out: MIC) | MIC ([2]; isolate ARC6815 (IHMA 1699513), Guatemala, RTI, 2017, read-out: MIC) | MIC ([2]; isolate ARC6817 (IHMA 1699523), Guatemala, RTI, 2017, read-out: MIC) | MIC ([2]; isolate ARC6820 (IHMA 1647876), Argentina, RTI, 2017, read-out: MIC) | MIC ([2]; isolate ARC6824 (IHMA 1625487), Argentina, BSI, 2017, read-out: MIC) | MIC ([2]; isolate ARC6950 (IHMA 1820064), Israel, RTI, 2018, read-out: MIC) | MIC ([2]; isolate ARC6953 (IHMA 1909827), Turkey, IAI, 2018, read-out: MIC) | MIC ([2]; isolate ARC6954 (IHMA 1838192), Guatemala, SSSI, 2018, read-out: MIC) | MIC ([2]; isolate ARC6955 (IHMA 1825425), United States, RTI, 2018, read-out: MIC) | MIC ([2]; isolate ARC7015 (IHMA 2045327), Guatemala, UTI, 2019, read-out: MIC) | MIC ([2]; isolate ARC7016 (IHMA 2148441), Brazil, BSI, 2019, read-out: MIC) | MIC ([2]; isolate ARC7017 (IHMA 2148446), Brazil, BSI, 2019, read-out: MIC) | MIC ([2]; isolate ARC7021 (IHMA 1966347), Guatemala, RTI, 2019, read-out: MIC) | MIC ([2]; isolate ARC7085 (IHMA 2205747), Guatemala, IAI, 2020, read-out: MIC) | MIC ([2]; isolate ARC7091 (IHMA 2244564), Australia, RTI, 2020, read-out: MIC) | MIC ([2]; isolate ARC7095 (IHMA 2320843), Turkey, BSI, 2020, read-out: MIC) | MIC ([3]; isolate ARC6949 (IHMA 1898982), Romania, RTI, 2018, read-out: MIC)
1 µg/mL: MIC50 [1] | MIC ([2]; isolate ARC6644 (IHMA 1420327), Mexico, UTI, 2016, read-out: MIC) | MIC ([2]; isolate ARC6646 (IHMA 1484127), United States, RTI, 2016, read-out: MIC) | MIC ([2]; isolate ARC6648 (IHMA 1407634), Spain, RTI, 2016, read-out: MIC) | MIC ([2]; isolate ARC6650 (IHMA 1457337), Argentina, RTI, 2016, read-out: MIC) | MIC ([2]; isolate ARC6653 (IHMA 1308777), Vietnam, RTI, 2016, read-out: MIC) | MIC ([2]; isolate ARC6799 (IHMA 1562935), Spain, UTI, 2017, read-out: MIC) | MIC ([2]; isolate ARC6800 (IHMA 1557526), Turkey, RTI, 2017, read-out: MIC) | MIC ([2]; isolate ARC6801 (IHMA 1662094), Thailand, RTI, 2017, read-out: MIC) | MIC ([2]; isolate ARC6802 (IHMA 1557073), Spain, UTI, 2017, read-out: MIC) | MIC ([2]; isolate ARC6803 (IHMA 1589408), Belgium, UTI, 2017, read-out: MIC) | MIC ([2]; isolate ARC6805 (IHMA 1558650), United States, RTI, 2017, read-out: MIC) | MIC ([2]; isolate ARC6808 (IHMA 1557168), Spain, RTI, 2017, read-out: MIC) | MIC ([2]; isolate ARC6810 (IHMA 1699548), Guatemala, RTI, 2017, read-out: MIC) | MIC ([2]; isolate ARC6814 (IHMA 1699512), Guatemala, RTI, 2017, read-out: MIC) | MIC ([2]; isolate ARC6823 (IHMA 1620872), Greece, SSSI, 2017, read-out: MIC) | MIC ([2]; isolate ARC6937 (IHMA 1562926), Spain, UTI, 2017, read-out: MIC) | MIC ([2]; isolate ARC7008 (IHMA 2009813), Thailand, BSI, 2019, read-out: MIC) | MIC ([2]; isolate ARC7009 (IHMA 2043611), United States, UTI, 2019, read-out: MIC) | MIC ([2]; isolate ARC7010 (IHMA 2043398), United States, RTI, 2019, read-out: MIC) | MIC ([2]; isolate ARC7012 (IHMA 2010001), Thailand, RTI, 2019, read-out: MIC) | MIC ([2]; isolate ARC7014 (IHMA 2045328), Guatemala, IAI, 2019, read-out: MIC) | MIC ([2]; isolate ARC7018 (IHMA 2045454), Guatemala, IAI, 2019, read-out: MIC) | MIC ([2]; isolate ARC7020 (IHMA 2045326), Guatemala, RTI, 2019, read-out: MIC) | MIC ([2]; isolate ARC7025 (IHMA 2002121), Spain, RTI, 2019, read-out: MIC) | MIC ([2]; isolate ARC7026 (IHMA 2104494), Guatemala, BSI, 2019, read-out: MIC) | MIC ([2]; isolate ARC7082 (IHMA 2160640), Belgium, BSI, 2020, read-out: MIC) | MIC ([2]; isolate ARC7089 (IHMA 2240345), Argentina, BSI, 2020, read-out: MIC) | MIC ([2]; isolate ARC7092 (IHMA 2258772), United States, BSI, 2020, read-out: MIC) | MIC ([2]; isolate ARC7094 (IHMA 2296423), Turkey, RTI, 2020, read-out: MIC) | MIC ([2]; isolate ARC7158 (IHMA 2523738), Italy, BSI, 2021, read-out: MIC) | MIC ([2]; isolate ARC7159 (IHMA 2456229), Malaysia, RTI, 2021, read-out: MIC) | MIC ([2]; isolate ARC7162 (IHMA 2411847), United States, BSI, 2021, read-out: MIC) | MIC ([2]; isolate ARC7163 (IHMA 2477704), United States, BSI, 2021, read-out: MIC) | MIC ([3]; isolate ARC6952 (IHMA 1899008), Romania, RTI, 2018, read-out: MIC)
0.13 µg/mL: MIC ([1]; read-out: MIC Min)
16 µg/mL: MIC ([1]; read-out: MIC Max) | MIC ([2]; isolate ARC7019 (IHMA 2114463), Thailand, RTI, 2019, read-out: MIC)
0.25 µg/mL: MIC ([2]; isolate ARC6645 (IHMA 1435703), France, UTI, 2016, read-out: MIC) | MIC ([2]; isolate ARC6652 (IHMA 1465642), Belgium, RTI, 2016, read-out: MIC) | MIC ([2]; isolate ARC6813 (IHMA 1699543), Guatemala, UTI, 2017, read-out: MIC) | MIC ([2]; isolate ARC6818 (IHMA 1683261), Thailand, RTI, 2017, read-out: MIC) | MIC ([2]; isolate ARC6821 (IHMA 1699517), Guatemala, RTI, 2017, read-out: MIC) | MIC ([2]; isolate ARC6822 (IHMA 1637626), Guatemala, RTI, 2017, read-out: MIC) | MIC ([3]; isolate ARC6951 (IHMA 1776233), Philippines, RTI, 2018, read-out: MIC) | MIC ([3]; isolate ARC7087 (IHMA 2212062), Colombia, BSI, 2020, read-out: MIC) | MIC [4]

Reference: PMC10648852, “Molecular drivers of resistance to sulbactam-durlobactam in contemporary clinical isolates of Acinetobacter baumannii” (Antimicrobial Agents and Chemotherapy, 2023)
